Measurements taken from patent publication US20250170099A1, “TREATMENT OF POSTNATAL DEPRESSION” (GH RESEARCH IRELAND LIMITED, priority 2022, published 2025).

What was measured:
human plasma protein = assay: Binding to human plasma protein (unbound fraction); assay type: in vitro ADME
Protocol: Binding to human plasma protein was determined. Reported are the unbound fraction (fu) for three replicates as well as the mean unbound fraction, the standard deviation and the mean % recovery (Table 8).

human hepatocytes [1] = assay: Metabolic stability in Hμrel human hepatocyte co-culture; assay type: in vitro ADME; details: for relative LC/MS peak area: 0 h
Protocol: The incubations were performed using 1 and 10 μM initial concentrations and sampling at 0, 1, 2, 4, 8, 24, 48, and 72 hours (h) time points. The samples were analysed using UPLC/QE-orbitrap-MS.

human hepatocytes [2] = assay: Metabolite identification in human hepatocytes; assay type: in vitro ADME; details: for relative proportion of compounds identified: 5-MeO-DMT 10 μM, up to 120 minutes
Protocol: All samples were stored at −80° C. (nominal) prior to analysis.
Appropriate blank and control samples were also analysed. […] (nominal).

[3] = Pharmacokinetics of 5-MeO-DMT and bufotenine after inhalation; assay type: in vivo, human

Q: Which “plasma binding (mean fraction unbound)” value (human plasma protein) does the source give for 5-Methoxyindole acetic acid [5-MIAA] here?
A: Its value is roughly 50%.

Q: What about the “time for removal from circulation by renal clearance” value (human plasma protein; from glomerular filtration rate 90-120 ml/min) of the same compound?
A: Its value is 1 to 2 h.

Q: What about the “disappearance with stromal cell controls” value (human hepatocytes [1]) of the same compound?
A: Its value is “no disappearance”.

Q: And the “in vitro intrinsic clearance” value (human hepatocytes [1]; 1 μM, human hepatocytes)?
A: Its value is 0.15 μl/min/million cells.

Q: And the remaining abundance (human hepatocytes [1]; 72 h, hepatocytes, 1 and 10 μM)?
A: Its remaining abundance is 75-82%.

Q: What about the “presence in subsequent assays” value (human hepatocytes [2]) of the same compound?
A: The value was “predominant metabolite”.

Q: With `COc1ccc2[nH]cc(CC[N+](C)(C)[O-])c2c1` [5-MeO-DMT-N-oxide] as the compound, how does the “relative proportion of compounds identified” value (human hepatocytes [2]) read?
A: Its value is 1%.

Q: What does the source list for `COc1ccc2[nH]cc(CCO)c2c1` [5-methoxytryptophol, 5-Methoxyindole-3-ethanol]?
A: disappearance with stromal cell controls (human hepatocytes [1]): no disappearance; relative LC/MS peak area (human hepatocytes [1]; 1 μM, hepatocytes): 100%; relative LC/MS peak area (human hepatocytes [1]; 1 μM, stromal cells): 100%; relative LC/MS peak area (human hepatocytes [1]; 10 μM, hepatocytes): 100%; relative LC/MS peak area (human hepatocytes [1]; 10 μM, stromal cells): 100%; presence in subsequent assays (human hepatocytes [2]): repeatedly failed to detect; relative proportion of compounds identified (human hepatocytes [2]): 25%

Q: For `CN(C)CCc1c[nH]c2ccc(O[C@@H]3O[C@H](C(=O)O)[C@@H](O)[C@H](O)[C@H]3O)cc12` [Bufotenine glucuronide], which “detection in the hepatocyte assay” value (human hepatocytes [2]) is on record?
A: The value was “not detected”.

Q: What does the source list for `CN(C)CCc1c[nH]c2ccc(O)cc12` [bufotenine, Bufotenine]?
A: detection in human serum ([3]; 15 minutes after administration of 5-MeO-DMT): In no case is it detected; bufotenine blood concentration ([3]; from 15 min after 5-MeO-DMT inhalation, LLOQ): < 25 pg/mL; relative proportion of compounds identified (human hepatocytes [2]): 5%
